Earlier results as cited in PMC7533793 (Cancer, 2009).
Read-outs that look alike come from different tables or passages of the source.

Test system: in-transit extremity melanoma
Settings: for CR rate, isolated limb infusion: Sydney Melanoma Unit study
[1] = previously published experience of the authors, without ADH-1

Compound: N[C@@H](Cc1ccc(N(CCCl)CCCl)cc1)C(=O)O [melphalan, L-phenylalanine mustard]
- CR rate, isolated limb infusion (n = 60, M. D. Anderson stage IIIab (AJCC stage IIIC)): 33%
- CR rate, isolated limb infusion (n = 74, M. D. Anderson stage IIIa (AJCC stage IIIB)): 43%
- CR rate, isolated limb infusion with LPAM [1]: 30%
- PD rate, isolated limb infusion with LPAM [1]: 48%
- PR rate, isolated limb infusion with LPAM [1]: 7%
